From patent US20160287563A1, “Cysteine Prodrugs” (Promentis Pharmaceuticals, Inc., priority 2011, published 2016)

Experiments:
[1] = Tissue glutathione in the MAM neurodevelopmental model of schizophrenia; format: in vivo; conditions: rats in the MAM neurodevelopmental model (MAM 22 mg/kg IP on gestational day 17)
Procedure: (§1) This approach would have the added benefit of allowing assessing the impact of the compounds on cognitive changes that are thought to be relevant to schizophrenia. Thus, one would be able to test the hypothesis that the conditions that normalize glutathione are also conditions that are expected to improve cognitive performance.
Timed pregnant Sprauge-Dawley rats are given an acute injection of methylazoxymethanol (MAM; 22 mg/kg, IP) or vehicle on gestational day 17. Following vaginal birth, all mothers and offspring are left undisturbed until weaning on postnatal day 22.

[2] = test system: MAM-treated rats; experiment: Attentional Set Shifting in MAM-treated rats; format: in vivo
Excerpt: as §1
Seven days prior to testing the animals will be food deprived to 85% of their free-feeding weight. Rats will be trained and tested on a four-arm cross maze (60×20×12 inches), constructed from Plexiglas with a removable arm to form a “T” configuration. On the first habituation day, the rat will be allowed to explore and consume up to 20 sugar pellets for 15 minutes. On the second day, the maze will be baited with 12 pellets for 15 minutes. On subsequent days, only one pellet will be placed at the end of each arm. This procedure will be continued daily until the rat consumes 16 sugar pellets in 15 minutes. Once achieved, the turn bias will be determined by forming a “T” configuration with the removable arm. A black-and-white piece of laminated paper for a visual cue will be placed on the floor in one of the arms. One pellet will be placed in each food well of the “T” arms. The rat will then be placed in the stem arm and allowed to choose between the two arms. […]

[3] = test system: cultured cells; experiment: Glutathione levels in cultured cells exposed to oxidative stress agents; format: cell-based; conditions: iron 0-120 min exposure to 0-100 microM; ethacrynic acid 0-30 min exposure to 0-10 microM
Excerpt: First, the experiment described in part 1A is repeated, except the harvested tissue is exposed to agents that induce oxidative stress which would prompt the cells to use/increase the synthesis of glutathione (the details are provided below).

SMILES | tissue levels of glutathione in cultured cells [3] | further results
C[N+]([O-])=NCO [MAM, methylazoxymethanol] |  | tissue levels of glutathione [1]: modest reduction in tissue levels of glutathione
CC(=O)N[C@@H](CS)C(=O)O [NAC, N-acetyl cysteine] |  | Attentional Set Shifting deficit [2]: can be restored
C=C(CC)C(=O)c1ccc(OCC(=O)O)c(Cl)c1Cl [ethacrynic acid] | decrease tissue levels of glutathione | 
[Fe] [iron] | decrease tissue levels of glutathione | 
